# Test results: patent US6822100B2 (Bristol-Myers Squibb Company, priority 2001, dated 2004)
# pKi: −log10 of the molar value. Read-outs that look alike come from different tables or passages of the source.
# How the values were obtained:
# [1] = molecular target: T1, human serotonin transporters (Homo sapiens, UniProt P31645); test: Serotonin Transporter Binding Assay; settings: HEK-hSERT cell membranes, 1 nM [3H]-citalopram, Cheng and Prusoff; for pKi: read-out: SERT Ki; for Ki: SERT Ki (nM)
# T1 construct: expressed in transfected cells; host or cells: HEK-293 (HEK-hSERT), membrane homogenates
# Experimental: HEK-293 cells that stably express human serotonin transporters (HEK-hSERT cells) were grown at 37° C. in 5% CO2 as a monolayer in medium consisting of EMEM supplemented with 10% fetal bovine serum and G418 sulfate (500 μg/ml). To prepare membranes for radioligand binding experiments, cells were rinsed twice with phosphate-buffered saline (138 mM NaCl, 4.1 mM KCl, 5.1 mM Na2PO4, 1.5 mM […], 11.1 mM glucose, pH 7.4). Cells were transferred from plates to polypropylene tubes (16×100 mm), centrifuged at 1,200×g for 5 min and were frozen at −80° C. until assay. Following centrifugation, pellets were resuspended by homogenization in buffer consisting of 50 mM Tris (pH 7.7 at 25° C.), 120 mM NaCl and 5 mM KCl and then centrifuged at 32,000×g for 10 min. Following centrifugation, supernatants were discarded and pellets were resuspended in buffer consisting of 50 mM Tris (pH 7.4 at 25° C.), 150 mM NaCl and 5 mM KCl. Membrane homogenates (200 μl/plate) were incubated with 1 nM [^3H]-citalopram (specific activity=85 Ci/mmol) and increasing concentrations of test compounds for 1 hr at 25° C. in a total volume of 250 μl. The assay buffer consisted of 50 mM Tris (pH 7.4 at 25° C.), 120 mM NaCl and 5 mM KCl (pH 7.4 with conc. HCl). Plates were incubated for 1 hr at 25° C., then filtered through 0.5% PEI treated Whatman GF/B filters using a Brandel cell harvester. Filters were washed three times with 3 ml of ice-cold tris wash buffer. Non-specific binding was defined with 10 μM fluoxetine. Amount of radioligand bound in the presence and absence of competitor was analyzed by plotting (−)log drug concentration versus the amount of radioligand specifically bound. The midpoint of the displacement curve (IC50, nM), signifies the potency. Ki values were calculated using the method of Cheng and Prusoff (1973).
# [2] = molecular target: T2, recombinant human dopamine D2L receptors (Homo sapiens, UniProt P14416); test: Dopamine Binding Assay; settings: HEK-D2L cell membranes, 150 pM [3H]-spiperone, Cheng and Prusoff
# T2 construct: expressed in transfected cells; host or cells: HEK-293 (HEK-D2L), membrane homogenates
# Experimental: HEK-293 cells that stably express recombinant human dopamine D2L receptors (HEK-D2L cells) were grown at 37° C. in 5% CO2 as a monolayer in medium consisting of EMEM supplemented with 10% fetal bovine serum and G418 sulfate (500 μg/ml). To prepare membranes for radioligand binding experiments, cells were rinsed twice with phosphate-buffered saline (138 mM NaCl, 4.1 mM KCl, 5.1 mM Na2PO4, 1.5 mM KH2PO2 11.1 mM glucose, pH 7.4), and incubated for 5-10 min. at 4° C. in hypotonic lysis buffer consisting of 10 mM Tris (pH 7.4) and 5 mM EDTA. Cells were transferred from plates to polypropylene tubes (16×100 mm), homogenized and centrifuged at 32,000×g for 20 min. Following centrifugation, pellets were resuspended by homogenization in buffer consisting of 50 mM Tris (pH 7.7 at 25° C.) and 1 mM EDTA. Homogenates were stored at −80° C. until needed. On the day of an experiment, homogenates were thawed then centrifuged at 32,000×g for 20 min. Following centrifugation, supernatants were discarded and pellets were resuspended in assay buffer consisting of 50 mM Tris (pH 7.4 at 25° C.), 1 mM EDTA and 6 mM MgCl2. Membrane homogenates (˜5 μg) were incubated with 150 pM [^3H]-spiperone (Amersham Life Science) and increasing concentrations of test compounds for 1.5 hr at 22° C. in a total volume of 400 μl. Reactions were stopped by addition of ice-cold assay buffer and filtration over glass fiber filters (Whatman GFB, pre-soaked in 0.05% polyethylenimine) using a microtitre format Brandel cell harvester. Filters were washed with 3 ml of ice-cold assay buffer. Non-specific binding was defined with 2 μM (+)butaclamol. Ki values were calculated using the method of Cheng and Prusoff (1973). Protein concentrations were determined by the method of Bradford (1976) with BSA as a standard.
# T1 sequence (P31645 whole entry): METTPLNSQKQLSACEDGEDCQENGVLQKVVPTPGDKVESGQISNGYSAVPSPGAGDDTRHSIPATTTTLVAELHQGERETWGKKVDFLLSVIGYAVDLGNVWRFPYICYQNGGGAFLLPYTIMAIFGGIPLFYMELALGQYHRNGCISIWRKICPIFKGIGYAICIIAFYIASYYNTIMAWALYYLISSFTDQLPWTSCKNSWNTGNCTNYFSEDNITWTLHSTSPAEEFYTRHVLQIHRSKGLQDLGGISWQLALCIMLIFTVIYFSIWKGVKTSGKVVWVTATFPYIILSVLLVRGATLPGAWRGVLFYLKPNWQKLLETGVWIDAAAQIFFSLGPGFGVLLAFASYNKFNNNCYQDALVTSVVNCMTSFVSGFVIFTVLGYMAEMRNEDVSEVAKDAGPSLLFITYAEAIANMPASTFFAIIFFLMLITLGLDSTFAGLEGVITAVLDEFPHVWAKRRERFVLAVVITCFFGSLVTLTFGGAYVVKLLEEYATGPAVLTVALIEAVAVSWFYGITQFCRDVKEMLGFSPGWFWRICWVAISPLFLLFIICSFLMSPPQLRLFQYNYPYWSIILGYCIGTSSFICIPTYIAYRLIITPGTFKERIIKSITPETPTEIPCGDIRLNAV
# T2 sequence (P14416 whole entry): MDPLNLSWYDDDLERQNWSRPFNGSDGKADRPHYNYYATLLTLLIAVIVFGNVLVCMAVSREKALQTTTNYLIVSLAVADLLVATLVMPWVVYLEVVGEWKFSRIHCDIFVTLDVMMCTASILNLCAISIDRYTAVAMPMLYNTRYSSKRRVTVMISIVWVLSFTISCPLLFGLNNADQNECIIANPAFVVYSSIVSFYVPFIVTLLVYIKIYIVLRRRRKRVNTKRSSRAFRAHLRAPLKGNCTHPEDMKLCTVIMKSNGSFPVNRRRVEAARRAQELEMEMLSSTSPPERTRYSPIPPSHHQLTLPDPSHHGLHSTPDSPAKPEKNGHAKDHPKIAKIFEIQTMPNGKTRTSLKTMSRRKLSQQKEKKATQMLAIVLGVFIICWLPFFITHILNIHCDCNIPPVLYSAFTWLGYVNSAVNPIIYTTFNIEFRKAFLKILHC
pKi [1],Compound,pKi [2],Ki [1] [nM]
7.00 to 8.00,COc1ccc(CCNC[C@@H]2C[C@H]2c2c[nH]c3ccc(F)cc23)cc1 (relative stereo) [Example 82],7.00 to 8.00,
8.00 to 9.00,"CCCOC(=O)NCCCN(CC)C[C@@H]1C[C@H]1c1c[nH]c2ccc(C#N)cc12 (relative stereo) [Example 99, trans-2-[5-Cyanoindol-3-yl]-1-[N,N-ethyl-2-amino(propylcarbamoyl)propylaminomethyl]-cyclopropane]",6.00 to 7.00,
,"Fc1ccc2[nH]cc(C3CC3CN3CCCCC3)c2c1 (stereo not drawn) [Example 85, trans-2-[5-Fluoroindol-3-yl]-1-[piperidin-1-yl-methyl]-cyclopropane]",< 6.00,10 to 100
8.00 to 9.00,"N#Cc1ccc2[nH]cc(C3CC3CNCCCc3ccccc3)c2c1 (stereo not drawn) [Example 21, trans-2-[5-Cyanoindol-3-yl]-1-[N-3-phenylpropylaminomethyl]-cyclopropane]",7.00 to 8.00,
7.00 to 8.00,"COc1ccc(CNCC2CC2c2c[nH]c3ccc(F)cc23)cc1 (stereo not drawn) [Example 52, trans-2-[5-Fluoroindol-3-yl]-1-[N-(4-methoxybenzyl)aminomethyl]-cyclopropane]",6.00 to 7.00,
,"Fc1ccc2[nH]cc(C3CC3CN3CCNCC3)c2c1 (stereo not drawn) [Example 74, trans-2-[5-Fluoroindol-3-yl]-1-(piperazin-1-yl-methyl)-cyclopropane]",< 6.00,1 to 10
8.00 to 9.00,"COc1cccc(CNCC2CC2c2c[nH]c3ccc(F)cc23)c1 (stereo not drawn) [Example 51, trans-2-[5-Fluoroindol-3-yl]-1-[N-(3-methoxybenzyl)aminomethyl]-cyclopropane]",6.00 to 7.00,
8.00 to 9.00,"Fc1ccc2[nH]cc(C3CC3CNCCCc3ccccc3)c2c1 (stereo not drawn) [Example 62, trans-2-[5-Fluoroindol-3-yl]-1-[N-3-phenylpropylaminomethyl]-cyclopropane]",7.00 to 8.00,
8.00 to 9.00,CCN(CCNC(=O)OC(C)C)C[C@@H]1C[C@H]1c1c[nH]c2ccc(F)cc12 (relative stereo) [Example 111],7.00 to 8.00,
8.00 to 9.00,"CCOC(=O)NCCCN(CC)C[C@@H]1C[C@H]1c1c[nH]c2ccc(C#N)cc12 (relative stereo) [Example 98, trans-2-[5-Cyanoindol-3-yl]-1-[N,N-ethyl-2-amino(ethylcarbamoyl)propylaminomethyl]-cyclopropane]",6.00 to 7.00,
,"CC(C1CC1c1c[nH]c2ccc(C#N)cc12)N(C)C (racemic) [Example 121, trans-3-[2-(1-Dimethylamino-ethyl)-cyclopropyl]-1H-indole-5-carbonitrile]",< 6.00,< 1
,"CN(C)CC1CC1c1c[nH]c2ccc(C#N)cc12 (single isomer, unassigned) [Example 117, Cis-2-[5-Cyanoindol-3-yl]-1-(N,N-dimethylaminomethyl)cyclopropane]",< 6.00,1 to 10
7.00 to 8.00,"CCN(CCCNC(=O)OC)C[C@@H]1C[C@H]1c1c[nH]c2ccc(F)cc12 (relative stereo) [Example 112, trans-1-[N,N-Ethyl-2-amino(methylcarbamoyl)propylaminomethyl]-2-[5-fluoroindol-3-yl]-cyclopropane]",6.00 to 7.00,
7.00 to 8.00,"Fc1ccc2[nH]cc(C3CC3CNCCc3cccs3)c2c1 (stereo not drawn) [Example 67, trans-2-[5-Fluoroindol-3-yl]-1-[N-2-(2-thiopheneyl)ethylaminomethyl]-cyclopropane]",7.00 to 8.00,
8.00 to 9.00,Fc1ccc2[nH]cc([C@@H]3C[C@H]3CNCCOc3ccccc3)c2c1 (relative stereo) [Example 83],8.00 to 9.00,
,"CCN(CC)C[C@H]1C[C@@H]1c1c[nH]c2cc(C#N)ccc12 (racemic) [Example 160, 3-(2-Diethylaminomethyl-cyclopropyl)-1H-indole-6-carbonitrile]",< 6.00,10 to 100
,"N#Cc1ccc2[nH]cc(C3CC3CN3CCNCC3)c2c1 (stereo not drawn) [Example 35, trans-2-[5-Cyanoindol-3-yl]-1-(piperazin-1-yl-methyl)-cyclopropane]",< 6.00,1 to 10
,"CN(C)CC1CC1c1c[nH]c2ccc(F)cc12 (single isomer, unassigned) [Example 130b, Cis-2-[5-Fluoroindol-3-yl]-1-(N,N-dimethylaminomethyl)cyclopropane]",< 6.00,1 to 10
8.00 to 9.00,"COc1cccc(CNC[C@@H]2C[C@H]2c2c[nH]c3ccc(C#N)cc23)c1 (relative stereo) [Example 9, trans-2-[5-Cyanoindol-3-yl]-1-[N-(3-methoxybenzyl)aminomethyl]-cyclopropane]",6.00 to 7.00,
8.00 to 9.00,"CN(CCc1ccccc1)C[C@@H]1C[C@H]1c1c[nH]c2ccc(F)cc12 (relative stereo) [Example 78, trans-2-[5-Fluoroindol-3-yl]-1-[N,N-methyl-phenylethylaminomethyl]-cyclopropane]",6.00 to 7.00,

Compound,pKi [1],pKi [2],Ki [1] [nM]
"CNC[C@H]1C[C@@H]1c1c[nH]c2ccc(C#N)cc12 [Example 120, (1S,2S)-trans-2-[5-Cyanoindol-3-yl]-1-(N-methylaminomethyl)cyclopropane]",8.00 to 9.00,6.00 to 7.00,
"CCCN(CCC)CC1CC1c1c[nH]c2ccc(F)cc12 (stereo not drawn) [Example 77, trans-1-[N,N-Dipropylaminomethyl]-2-[5-fluoroindol-3-yl]-cyclopropane]",7.00 to 8.00,6.00 to 7.00,
"CNCCCC1CC1c1c[nH]c2ccc(C#N)cc12 (stereo not drawn) [Example 175, Trans-2-[5-cyanoindol-3-yl]-1-(3-(N-methylamino)propyl)cyclopropane]",8.00 to 9.00,6.00 to 7.00,
"N#Cc1ccc2[nH]cc([C@@H]3C[C@H]3CNC3CCCCC3)c2c1 (relative stereo) [Example 29, trans-2-[5-Cyanoindol-3-yl]-1-[N-cyclohexylaminomethyl]-cyclopropane]",7.00 to 8.00,7.00 to 8.00,
"Fc1ccc2[nH]cc(C3CC3CNCC3CCCCC3)c2c1 (stereo not drawn) [Example 71, trans-1-[N-Cyclohexylmethylaminomethyl]-2-[5-fluoroindol-3-yl]-cyclopropane]",7.00 to 8.00,7.00 to 8.00,
"Fc1ccc2[nH]cc(C3CC3CN3CCCC3)c2c1 (stereo not drawn) [Example 84, trans-2-[5-Fluoroindol-3-yl]-1-[pyrrolidin-1-yl-methyl]-cyclopropane]",8.00 to 9.00,6.00 to 7.00,
"trans-2-[5-Cyanoindol-3-yl]-1-[N,N-methyl-2-amino(isopropylcarbamoyl)ethylaminomethyl]-cyclopropane [Example 6]",8.00 to 9.00,< 6.00,
"N#Cc1ccc2[nH]cc([C@@H]3C[C@H]3CNCc3ccccc3)c2c1 (relative stereo) [Example 7, trans-1-(N-Benzlyaminomethyl)-2-[5-cyanoindol-3-yl]-cyclopropane]",8.00 to 9.00,6.00 to 7.00,
CCN(CC)C[C@@H]1C[C@H]1c1c[nH]c2ccc(F)cc12 (relative stereo) [Example 86],7.00 to 8.00,6.00 to 7.00,
"N#Cc1ccc2[nH]cc([C@@H]3C[C@H]3CNCCc3c[nH]c4ccccc34)c2c1 (relative stereo) [Example 27, trans-2-[5-Cyanoindol-3-yl]-1-[N-2-(3-indolyl)ethylaminomethyl]-cyclopropane]",8.00 to 9.00,7.00 to 8.00,
